52 compounds from PubChem BioAssay AID1996 can be followed below.

As a reminder, the kinetic solubility is the concentration staying in solution when a stock, usually in DMSO, is diluted into the medium.

Each structure is given as a SMILES string. In brackets after ≈: the same amount, converted by molar mass.

For this data set the following is noted: buffer; pH 7.4; 200.0 µM.
`CCN1C(C#N)=C(C#N)N=C(C)CC1(C)C` registered a kinetic solubility of 29.8 µg/mL (≈ 138 µM).

Regarding `CCCOc1ccc(N2C(=O)C3C4C=CC(CC4)C3C2=O)cc1` (configuration not stated), the solubility (kinetic) is 4.6 µg/mL (≈ 14.8 µM).

As for `O=C1OCc2ccc(NC(=O)C3CC3)cc21`, the solubility (kinetic) is over 32.6 µg/mL.

`COc1ccc(N(C=O)C(=S)SC)cc1` showed a solubility (kinetic) of 2.7 µg/mL (≈ 11.2 µM).

With `COc1ccccc1CC(=O)N(Cc1ccccc1)c1ccc(C)cc1`, the solubility (kinetic) stood at 10 µg/mL (≈ 28.9 µM).

The compound `CCNC(=O)CSc1nc2sccc2c(=O)n1-c1ccccc1` showed a solubility (kinetic) of over 51.8 µg/mL.

In the case of `CCC(C)c1ccc(NC(=O)COC(=O)CCNS(=O)(=O)c2cccs2)cc1` (configuration not stated), the solubility (kinetic) stood at 21.2 µg/mL (≈ 49.9 µM).

Compound `COc1ccc(NC(=O)c2cccs2)cn1` had a solubility (kinetic) of over 35.1 µg/mL.

`Cc1[nH]n2cnnc2c(=O)c1Br.O=S(=O)(O)O` gave a solubility (kinetic) of over 49.1 µg/mL.

For the compound `COc1cc(C(=O)OCCNC(=O)c2ccccc2)cc(OC)c1OC`, the kinetic solubility is over 53.9 µg/mL.

In the case of `COC(=O)CNc1nc(Cl)nc(N2CCC(C)CC2)n1`, the solubility (kinetic) stood at 39.5 µg/mL (≈ 132 µM).

Regarding `O=C1C2C3C=CC(C3)C2C(=O)N1Nc1ccccc1` (configuration not stated), the solubility (kinetic) was over 38.1 µg/mL.

Compound `COc1cc(CN2CCC(CO)(CCOc3ccccc3)CC2)cc(OC)c1` registered a solubility (kinetic) of 52.2 µg/mL (≈ 135 µM).

As for `O=C1CC(NCCc2ccccc2)C(=O)N1CCc1ccccc1` (configuration not stated), the solubility (kinetic) amounted to 46.1 µg/mL (≈ 143 µM).

`O=C(CNS(=O)(=O)Cc1ccccc1)NCc1ccccc1` came in with a kinetic solubility of 12.9 µg/mL (≈ 40.5 µM).

`Cc1nc(N)ncc1Sc1ccccc1` showed a kinetic solubility of 5.2 µg/mL (≈ 23.9 µM).

Turning to `CN(C)N1C(=O)CC(N2CCCCC2)C1=O` (configuration not stated), the kinetic solubility was over 33.8 µg/mL.

As for `Cc1ccc(NC(=O)C2CC(O)CN2C(=O)OCc2ccccc2)cc1C` (configuration not stated), the kinetic solubility was found to be 48.8 µg/mL (≈ 132 µM).

`Cc1c(C(=O)NC2CCOC2)oc2c(F)cccc12` (configuration not stated) yielded a kinetic solubility of over 39.5 µg/mL.

In turn, `CSc1ncccc1C(=O)OCC(=O)NCCCc1ccccc1` had a kinetic solubility of 20.6 µg/mL (≈ 59.8 µM).

Turning to `O=C(CCN1C(=O)c2ccccc2C1=O)NCc1cccc(Cl)c1`, the solubility (kinetic) worked out at 32.4 µg/mL (≈ 94.5 µM).

In the case of `CC1CC(C)CN(C(=O)COC(=O)c2ccc(N3CCCC3=O)cc2)C1` (configuration not stated), the kinetic solubility was over 53.8 µg/mL.

For `Nc1ccccc1C(=O)Nc1cccc2ccccc12`, the solubility (kinetic) stood at 24.7 µg/mL (≈ 94.2 µM).

Compound `O=C(COc1ccccc1)NCC1COc2ccccc2O1` (configuration not stated) gave a kinetic solubility of 44.8 µg/mL (≈ 150 µM).

Take `O=C(COC(=O)c1ccccc1Nc1ccccc1F)c1ccccc1`: the solubility (kinetic) is under 0.7 µg/mL.

`COc1ccc(C)cc1S(=O)(=O)n1c([N+](=O)[O-])cnc1C` came in with a kinetic solubility of over 46.7 µg/mL.

`O=C1N=c2ccccc2=C1c1sc(=S)n(-c2ccc(O)cc2)c1O`: the kinetic solubility was found to be 0.8 µg/mL (≈ 2.26 µM).

`O=c1[nH]c(/C=C/c2ccccc2)c([N+](=O)[O-])c(=O)[nH]1` yielded a solubility (kinetic) of over 38.9 µg/mL.

In turn, `CC(=O)N1C(C)(C)CC(=NOC(=O)c2ccc(C)cc2)CC1(C)C` showed a kinetic solubility of over 49.6 µg/mL.

With `CCC1CCCCN1C(=O)CCCc1ccccc1` (configuration not stated), the kinetic solubility was 33.2 µg/mL (≈ 128 µM).

Compound `CC(C)C(NC(=O)C1CCCCC1)C(=O)NC1CCCC(C)C1C` (configuration not stated) yielded a kinetic solubility of 3.9 µg/mL (≈ 11.6 µM).

`COc1ccc(C=O)cc1Oc1nc(Cl)ncc1F` displayed a solubility (kinetic) of 32 µg/mL (≈ 113 µM).

`CCN(C(=O)COC(=O)CCC(=O)c1cccs1)c1ccccc1` gave a kinetic solubility of over 51.8 µg/mL.

With `Fc1cccc(NC(=S)NCc2ccccc2Cl)c1`, the kinetic solubility was determined as 1.6 µg/mL (≈ 5.43 µM).

Consider `Cc1ccc(C(=O)NCN2CCN(c3ccccc3)CC2)cc1`, for which the solubility (kinetic) was over 46.4 µg/mL.

The compound `Cc1ccc(C(C)NC(=O)c2ccc3c(c2)OCO3)cc1C` (configuration not stated) displayed a kinetic solubility of 39.4 µg/mL (≈ 133 µM).

Take `Cl.O=C(CNCc1ccccc1)NC1C2CC3CC(C2)CC1C3` (configuration not stated): the kinetic solubility is 50.2 µg/mL.

`CN1CCN(c2ccccc2NC(=O)c2cccc([N+](=O)[O-])c2)CC1` returned a kinetic solubility of over 51.1 µg/mL.

`CC(C)(C)NC(=O)CSCc1ccc(Br)cc1` returned a kinetic solubility of over 47.4 µg/mL.

Consider `COC(=O)C1=C(O)/C(=C/c2cccc(OC)c2O)N=C1C`, for which the kinetic solubility turned out to be 35.1 µg/mL (≈ 121 µM).

`Cc1c(C)n(Cc2ccccc2)c2ncnc(NCCCO)c12` registered a kinetic solubility of under 0.2 µg/mL.

The compound `NC(=O)NC(=O)COC(=O)c1sc2ccccc2c1Cl` showed a solubility (kinetic) of 1.2 µg/mL (≈ 3.84 µM).

In turn, `Cc1cccc(NC(=O)NC2CCCc3ccccc32)c1` (configuration not stated) showed a kinetic solubility of 0.7 µg/mL (≈ 2.5 µM).

The compound `ClCC1CN(Cc2ccccc2Cl)CCO1` (configuration not stated) returned a solubility (kinetic) of 17.3 µg/mL (≈ 66.5 µM).

`CCOc1ccc(CNc2ccc(N3CCCC3)cc2)cc1` showed a kinetic solubility of 3.1 µg/mL (≈ 10.5 µM).

`O=C(COC(=O)c1ccc(OC(F)F)cc1)NCc1cccs1` returned a solubility (kinetic) of 35.5 µg/mL (≈ 104 µM).

As to `O=C(CCCN1C(=O)/C(=C\c2ccccc2)SC1=S)Nc1ccccc1O`, the solubility (kinetic) is under 0.4 µg/mL.

Compound `Cc1cc(C(=O)OCC(=O)NCCN2C(=O)CSC2=O)ccc1[N+](=O)[O-]` displayed a kinetic solubility of over 57.2 µg/mL.

`Cc1cc(=O)[nH]c(Nc2cccc(F)c2)n1`: the kinetic solubility is over 32.9 µg/mL.

`Cc1ccc(S(=O)(=O)Nc2nc(-c3ccccc3)cs2)cc1` showed a kinetic solubility of over 49.6 µg/mL.

In turn, `Cc1cc(=O)[nH]c2sc(C(=O)N3c4ccccc4CC3C)c(N)c12` (configuration not stated) registered a solubility (kinetic) of over 50.9 µg/mL.

With `CCN1CCN(c2ncnc3sc4c(c23)CCC(C)C4)CC1` (configuration not stated), the kinetic solubility is 26.4 µg/mL (≈ 83.4 µM).
